What is called pIC50 is the negative decadic logarithm of the IC50, by convention in mol/L.

SMILES strings stand for the structures. pIC50: −log10 of the molar value.

The target in this test is Tyrosine-protein kinase BTK (Homo sapiens, UniProt Q06187). In words: Biochemical Assay: A generalized procedure for a standard biochemical Btk Kinase Assay that can be used to test Formula I compounds. Alternatively, the Lanthascreen assay can be used to evaluate Btk activity through quantification of its phosphorylated peptide product. The FRET (Fluorescence Resonance Energy Transfer) that occurs between the fluorescein on the peptide product and the terbium on …. (In TR-FRET formats the signal depends on donor and acceptor labels being close together.)
Sequence of Tyrosine-protein kinase BTK (Q06187 whole entry): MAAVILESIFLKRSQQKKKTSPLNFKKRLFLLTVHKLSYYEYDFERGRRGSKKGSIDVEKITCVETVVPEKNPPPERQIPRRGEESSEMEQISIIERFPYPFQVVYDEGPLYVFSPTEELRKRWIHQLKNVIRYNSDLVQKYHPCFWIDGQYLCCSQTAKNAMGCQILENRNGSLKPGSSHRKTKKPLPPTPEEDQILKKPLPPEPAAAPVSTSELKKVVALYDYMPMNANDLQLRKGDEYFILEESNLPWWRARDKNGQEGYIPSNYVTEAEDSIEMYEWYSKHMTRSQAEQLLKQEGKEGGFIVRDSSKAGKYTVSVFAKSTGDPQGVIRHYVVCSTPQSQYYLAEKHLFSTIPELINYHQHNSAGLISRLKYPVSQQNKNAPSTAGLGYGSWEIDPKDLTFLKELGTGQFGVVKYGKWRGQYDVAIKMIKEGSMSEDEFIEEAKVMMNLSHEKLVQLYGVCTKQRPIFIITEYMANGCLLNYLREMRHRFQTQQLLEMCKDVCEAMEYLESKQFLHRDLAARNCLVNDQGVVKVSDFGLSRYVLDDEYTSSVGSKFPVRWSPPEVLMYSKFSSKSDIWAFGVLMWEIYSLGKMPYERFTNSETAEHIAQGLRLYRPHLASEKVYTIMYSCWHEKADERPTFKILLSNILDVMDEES

Compound `Cn1cc(-c2cccc(N3CCn4c(cc5c4CC(C)(C)C5)C3=O)c2CO)cc(Nc2ccc(N3CCN(C4COC4)CC3)cn2)c1=O` showed a pIC50 of 8.28.
